The record followed here is PMC9654711, “Neuroprotective Action of Coumarin Derivatives through Activation of TRKB-CREB-BDNF Pathway and Reduction of Caspase Activity in Neuronal Cells Expressing Pro-Aggregated Tau Protein” (International Journal of Molecular Sciences, 2022).

Holding throughout (assay type): cell-based, human
In one assay the test system is p-AKT (S473). Description: Immunoblot of p-AKT (S473). As to the method: (§1) ∆K280 tauRD-DsRed SH-SY5Y cells in 6-well plates (5 × 10^5/well) were treated with retinoic acid (10 µM) on day 1, followed by LMDS-1 or -2 (10 µM) and doxycycline (2 µg/mL) addition on day 2 as described. ERK inhibitor U0126 or PI3K inhibitor wortmannin (10 μM) (LC Laboratories, Woburn, MA, USA) was added on day 6. On day 8, the cells were collected for BDNF, BCL2, BAX and total/phosphorylated TRKB, ERK, AKT, CREB protein analyses as described.
(§2) ∆K280 tauRD-DsRed SH-SY5Y cells were lysed in buffer containing 50 mM Tris-HCl (pH 8.0), 150 mM NaCl, 1 mM EDTA (pH 8.0), 1 mM EGTA (pH 8.0), 0.1% SDS, 0.5% sodium deoxycholate, 1% Triton X-100 and protease (Sigma-Aldrich)/phosphatase (Roche, Basel, Switzerland) inhibitor cocktails. After two sonications with an interval of 30 min on ice, cell lysates were collected by centrifugation at 14,000× g for 30 min at 4 °C. Protein concentrations were determined using a Bradford assay (Bio-Rad, Hercules, CA, USA). Protein samples (25 µg) were separated by 10–12% SDS-PAGE and transferred to polyvinylidene difluoride (PVDF) membranes (Sigma-Aldrich). After blocking for 2 h with 10% skimmed milk or 5% BSA in 0.1% Tween 20 in Tris-buffered saline (TBST), the membrane was incubated with primary antibody against BDNF (1:500; Santa Cruz, Santa Cruz, CA, USA), BCL2 (1:500; BioVision), BAX (1:500; BioVision), TRKB (1:1000; Cell Signaling, Danvers, MA, USA), p-TRKB (Y516) (1:1000; Cell Signaling), p-TRKB (Y817) (1:1000; Millipore, Billerica, MA, USA), ERK (1:1000; Cell Signaling), p-ERK (T202/Y204) (1:500; Cell Signaling), AKT (1:1000; Cell Signaling), p-AKT (S473) (1:1000; Cell Signaling), CREB (1:1000; Santa Cruz), p-CREB (S133) (1:1000; Millipore), JNK (1:1000; Cell Signaling), p-JNK (T183/Y185) (1:1000; Cell Signaling) or loading control glyceraldehyde-3-phosphate dehydrogenase (GAPDH) (1:1000; MDBio, Taipei, Taiwan). After three washes with TBST, the immune complexes were detected using horseradish peroxidase-conjugated goat anti-mouse or goat anti-rabbit secondary IgG antibody (1:5000, GeneTex, Irvine, CA, USA) and enhanced chemiluminescence substrates luminol and peroxide (Millipore). The primary and secondary antibodies used were diluted with TBST. The chemiluminescent detection was performed on ImageQuant™ LAS 4000mini (GE Healthcare).
A general note: Immunoblotting shows a protein as a band on a membrane.

The subject of a further assay is p-JNK (T183/Y185). In words: Immunoblot of p-JNK (T183/Y185). The note with it: 10 µM; versus 107% untreated; p > 0.05. As to the method: (§3) ∆K280 tauRD-DsRed SH-SY5Y cells were lysed in buffer containing 50 mM Tris-HCl (pH 8.0), 150 mM NaCl, 1 mM EDTA (pH 8.0), 1 mM EGTA (pH 8.0), 0.1% SDS, 0.5% sodium deoxycholate, 1% Triton X-100 and protease (Sigma-Aldrich)/phosphatase (Roche, Basel, Switzerland) inhibitor cocktails. After two sonications with an interval of 30 min on ice, cell lysates were collected by centrifugation at 14,000× g for 30 min at 4 °C. Protein concentrations were determined using a Bradford assay (Bio-Rad, Hercules, CA, USA). Protein samples (25 µg) were separated by 10–12% SDS-PAGE and transferred to polyvinylidene difluoride (PVDF) membranes (Sigma-Aldrich). […] After three washes with TBST, the immune complexes were detected using horseradish peroxidase-conjugated goat anti-mouse or goat anti-rabbit secondary IgG antibody (1:5000, GeneTex, Irvine, CA, USA) and enhanced chemiluminescence substrates luminol and peroxide (Millipore). […]

The test system of a further assay is pro-BDNF (31 kDa). Description: Immunoblot of pro-BDNF. The note with it: 10 µM; induced untreated 62%. How it is done:
as §1, §3

In assay [1] the test system is ΔK280 tauRD-DsRed SH-SY5Y folding reporter cells. Description: High-content analysis of ΔK280 tauRD-DsRed fluorescence and cell number (folding reporter). The note with it: BDNF at 100 ng/mL, LMDS-1/2 at 10 μM; untreated = 100%; Figure 6A. How it is done: On day 1, ∆K280 tauRD-DsRed SH-SY5Y cells were seeded in a 96-well plate (3 × 10^4/well), with retinoic acid (10 µM; Sigma-Aldrich) added to induce neuronal differentiation. […] […] For ROS measurement, dichloro-dihydro-fluorescein diacetate (DCFH-DA, 10 µM; Invitrogen, Carlsbad, CA, USA) was added to the cells on day 8 and incubated at 37 °C for 30 min.

The test system of the next assay is p-ERK (T202/Y204). In words: Immunoblot of p-ERK (T202/Y204). How it is done: as §1, §2

Take `CCOc1ccc2cc(C(=O)c3ccccc3)c(=O)oc2c1` [LMDS-1]: the p-AKT level in the assay with p-AKT (S473) (10 µM plus wortmannin 10 μM) is 62–64%; in the assay on p-AKT (S473) (10 µM, induced untreated 72%), 96–100%. For the same molecule, in the assay on p-JNK (T183/Y185), the “p-JNK (T183/Y185) expression” value is recorded as 93–108%. The pro-BDNF level in the assay with pro-BDNF (31 kDa) is 94–99%. Besides, the DsRed fluorescence intensity in assay [1] is 111–112%. Moreover, the p-ERK level in the assay with p-ERK (T202/Y204) (10 µM plus U0126 10 μM) is on record as 65–66%; with p-ERK (T202/Y204) (10 µM, induced untreated 76%), 101–102%.
Take `O=C(c1ccccc1)c1cc2ccc(O)cc2oc1=O` [LMDS-2]: the p-AKT level was 62–64% in the assay with p-AKT (S473) (10 µM plus wortmannin 10 μM) and 96–100% in the assay with p-AKT (S473) (10 µM, induced untreated 72%). Moreover, the “p-JNK (T183/Y185) expression” value with p-JNK (T183/Y185) is reported as 93–108%. Also, the pro-BDNF level with pro-BDNF (31 kDa) is 94–99%. The DsRed fluorescence intensity in assay [1] is 111–112%. Besides, the p-ERK level in the assay on p-ERK (T202/Y204) (10 µM plus U0126 10 μM) is on record as 65–66%; in the assay on p-ERK (T202/Y204) (10 µM, induced untreated 76%), 101–102%.
